Experimental data published in patent US20050197350A1, “Novel quinoline, tetrahydroquinazoline, and pyrimidine derivatives and methods of treatment related to the use thereof” (TAISHO PHARMACEUTICAL CO., LTD., priority 2003, published 2005).
Structures can show the parent of a compound that is named as a salt.

Target: MCH receptor (Homo sapiens, UniProt Q99705)
Assay: High throughput functional screening FLIPR/FDSS6000 (intracellular Ca2+ evoked by MCH)
Format: cell-based
Details: FLIPR/FDSS, antagonist activity vs 50 nM MCH; class by percent of control at 10^−7 M or IC50; table after the classification; read-out: class
Summary of the method: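 For antagonist testing, compound-treated cells (30 min, 37 °C) were stimulated with 50 nM MCH and intracellular Ca2+ followed by Fluo4 fluorescence on FLIPR/FDSS6000. Receptor was a constitutively active, non-endogenous MCH receptor; dye loading 4 μM Fluo4-AM, 1 h, 37 °C.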

SMILES	IC50 [nM]
Cc1cc(N[C@H]2CC[C@@H](NC(=O)c3ccc4nonc4c3)CC2)nc2ccccc12 [Example 3085, Benzo[2,1,3]oxadiazole-5-carboxylic acid-[cis-4-(4-methyl-quinolin-2-ylamino)-cyclohexyl]-amide hydrochloride]	< 50
Cc1cc(N[C@H]2CC[C@@H](NC(=O)c3cccc(Br)c3)CC2)nc2ccccc12 [Example 3086, 3-Bromo-N-[cis-4-(4-methyl-quinolin-2-ylamino)-cyclohexyl]-benzamide hydrochloride]	< 50
Cc1cc(N[C@H]2CC[C@@H](NC(=O)c3cccc(C#N)c3)CC2)nc2ccccc12 [Example 3087, 3-Cyano-N-[cis-4-(4-methyl-quinolin-2-ylamino)-cyclohexyl]-benzamide hydrochloride]	< 50
Cc1cc(N[C@H]2CC[C@@H](NC(=O)c3cccc(C(F)(F)F)c3)CC2)nc2ccccc12 [Example 3088, N-[cis-4-(4-Methyl-quinolin-2-ylamino)-cyclohexyl]-3-trifluoromethyl-benzamide hydrochloride]	< 50
Cc1cc(N[C@H]2CC[C@@H](NC(=O)C(c3ccccc3)c3ccccc3)CC2)nc2ccccc12 [Example 3089, N-[cis-4-(4-Methyl-quinolin-2-ylamino)-cyclohexyl]-2,2-diphenyl-acetamide hydrochloride]	< 50
Cc1cc(N[C@H]2CC[C@@H](NC(=O)c3cccnc3Oc3ccc(F)cc3)CC2)nc2ccccc12 [Example 3090, 2-(4-Fluoro-phenoxy)-N-[cis-4-(4-methyl-quinolin-2-ylamino)-cyclohexyl]-nicotinamide hydrochloride]	< 50
Cc1cc(N[C@H]2CC[C@@H](NC(=O)c3cccnc3Oc3ccc(F)c(F)c3)CC2)nc2ccccc12 [Example 3091, 2-(3,4-Difluoro-phenoxy)-N-[cis-4-(4-methyl-quinolin-2-ylamino)-cyclohexyl]-nicotinamide hydrochloride]	< 50
Cc1ccc(Oc2ncccc2C(=O)N[C@H]2CC[C@@H](Nc3cc(C)c4ccccc4n3)CC2)cc1 [Example 3092, N-[cis-4-(4-Methyl-quinolin-2-ylamino)-cyclohexyl]-2-p-tolyloxy-nicotinamide hydrochloride]	< 50
Cc1cc(N[C@H]2CC[C@@H](NC(=O)c3cccnc3Oc3ccc(Cl)cc3)CC2)nc2ccccc12 [Example 3093, 2-(4-Chloro-phenoxy)-N-[cis-4-(4-methyl-quinolin-2-ylamino)-cyclohexyl]-nicotinamide hydrochloride]	< 50
Cc1cc(N[C@H]2CC[C@@H](NC(=O)c3cccnc3Oc3ccc(Br)cc3)CC2)nc2ccccc12 [Example 3094, 2-(4-Bromo-phenoxy)-N-[cis-4-(4-methyl-quinolin-2-ylamino)-cyclohexyl]-nicotinamide hydrochloride]	< 50
COc1ccc(Oc2ncccc2C(=O)N[C@H]2CC[C@@H](Nc3cc(C)c4ccccc4n3)CC2)cc1 [Example 3095, 2-(4-Methoxy-phenoxy)-N-[cis-4-(4-methyl-quinolin-2-ylamino)-cyclohexyl]-nicotinamide hydrochloride]	< 50
Cc1cc(N[C@H]2CC[C@@H](NC(=O)c3cccnc3Oc3ccc(F)c(Cl)c3)CC2)nc2ccccc12 [Example 3096, 2-(3-Chloro-4-fluoro-phenoxy)-N-[cis-4-(4-methyl-quinolin-2-ylamino)-cyclohexyl]-nicotinamide hydrochloride]	< 50
Cc1cccc(Oc2ncccc2C(=O)N[C@H]2CC[C@@H](Nc3cc(C)c4ccccc4n3)CC2)c1 [Example 3097, N-[cis-4-(4-Methylquinolin-2-ylamino)-cyclohexyl]-2-m-tolyloxy-nicotinamide hydrochloride]	< 50
COc1cccc(OCC(=O)N[C@H]2CC[C@@H](Nc3cc(C)c4ccccc4n3)CC2)c1 [Example 3098, 2-(3-Methoxy-phenoxy)-N-[cis-4-(4-methyl-quinolin-2-ylamino)-cyclohexyl]-acetamide hydrochloride]	< 50
Cc1cc(N[C@H]2CC[C@@H](NC(=O)COc3cccc(Cl)c3)CC2)nc2ccccc12 [Example 3099, 2-(3-Chloro-phenoxy)-N-[cis-4-(4-methyl-quinolin-2-ylamino)-cyclohexyl]-acetamide hydrochloride]	< 50
Cc1cc(N[C@H]2CC[C@@H](NC(=O)COc3ccc(F)c(Cl)c3)CC2)nc2ccccc12 [Example 3100, 2-(3-Chloro-4-fluoro-phenoxy)-N-[cis-4-(4-methyl-quinolin-2-ylamino)-cyclohexyl]-acetamide hydrochloride]	< 50
Cc1cc(N[C@H]2CC[C@@H](NC(=O)COc3ccc(Cl)c(Cl)c3)CC2)nc2ccccc12 [Example 3101, 2-(3,4-Dichloro-phenoxy)-N-[cis-4-(4-methyl-quinolin-2-ylamino)-cyclohexyl]-acetamide hydrochloride]	< 50

SMILES	IC50 [nM]
Cc1cc(N[C@H]2CC[C@@H](NC(=O)CNc3ccc(Cl)c(Cl)c3)CC2)nc2ccccc12 [Example 3103, 2-(3,4-Dichloro-phenylamino)-N-[cis-4-(4-methyl-quinolin-2-ylamino)-cyclohexyl]-acetamide dihydrochloride]	50 to 200
Cc1cc(N[C@H]2CC[C@@H](CNC(=O)c3ccc(F)c(F)c3)CC2)nc2ccccc12 [Example 3104, 3,4-Difluoro-N-[cis-4-(4-methyl-quinolin-2-ylamino)-cyclohexylmethyl]-benzamide hydrochloride]	50 to 200
Cc1cc(N[C@H]2CC[C@@H](CNC(=O)c3cccnc3Oc3ccccc3)CC2)nc2ccccc12 [Example 3105, N-[cis-4-(4-Methylquinolin-2-ylamino)-cyclohexylmethyl]-2-phenoxy-nicotinamide hydrochloride]	50 to 200
Cc1cc(N[C@H]2CC[C@@H](CNC(=O)Nc3cccc(Cl)c3Cl)CC2)nc2ccccc12 [Example 3106, 1-(2,3-Dichloro-phenyl)-3-[cis-4-(4-methyl-quinolin-2-ylamino)-cyclohexylmethyl]-urea hydrochloride]	< 50
CN(C)c1nc(N[C@H]2CC[C@@H](NC(=O)c3cccnc3Oc3ccccc3)CC2)nc2c1CCCC2 [Example 3107, N-[cis-4-(4-Dimethylamino-5,6,7,8-tetrahydro-quinazolin-2-ylamino)-cyclohexyl]-2-phenoxy-nicotinamide hydrochloride]	< 50
CN(C)c1nc(N[C@H]2CC[C@@H](NC(=O)c3ccc(F)c(Cl)c3)CC2)nc2c1CCCC2 [Example 3108, 3-Chloro-N-[cis-4-(4-dimethylamino-5,6,7,8-tetrahydro-quinazolin-2-ylamino)-cyclohexyl]-4-fluoro-benzamide hydrochloride]	< 50
Cc1cc(C(=O)N[C@H]2CC[C@@H](Nc3nc4c(c(N(C)C)n3)CCCC4)CC2)ccc1F [Example 3109, N-[cis-4-(4-Dimethylamino-5,6,7,8-tetrahydro-quinazolin-2-ylamino)-cyclohexyl]-4-fluoro-3-methyl-benzamide hydrochloride]	< 50
COc1cc(OC)cc(C(=O)N[C@H]2CC[C@@H](Nc3nc4c(c(N(C)C)n3)CCCC4)CC2)c1 [Example 3110, N-[cis-4-(4-Dimethylamino-5,6,7,8-tetrahydro-quinazolin-2-ylamino)-cyclohexyl]-3,5-dimethoxy-benzamide hydrochloride]	< 50
CN(C)c1nc(N[C@H]2CC[C@@H](NC(=O)c3ccc4nonc4c3)CC2)nc2c1CCCC2 [Example 3111, Benzo[2,1,3]oxadiazole-5-carboxylic acid-[cis-4-(4-dimethylamino-5,6,7,8-tetrahydro-quinazolin-2-ylamino)-cyclohexyl]-amide hydrochloride]	< 50
CN(C)c1nc(N[C@H]2CC[C@@H](NC(=O)c3cccc([N+](=O)[O-])c3)CC2)nc2c1CCCC2 [Example 3112, N-[cis-4-(4-Dimethylamino-5,6,7,8-tetrahydro-quinazolin-2-ylamino)-cyclohexyl]-3-nitro-benzamide hydrochloride]	< 50
CN(C)c1nc(N[C@H]2CC[C@@H](CNC(=O)c3cccnc3Oc3ccccc3)CC2)nc2c1CCCC2 [Example 3113, N-[cis-4-(4-Dimethylamino-5,6,7,8-tetrahydro-quinazolin-2-ylamino)-cyclohexylmethyl]-2-phenoxy-nicotinamide hydrochloride]	> 200
CN(C)c1cc(N[C@H]2CC[C@@H](NC(=O)c3cccnc3Oc3ccccc3)CC2)nc2ccccc12 [Example 3114, N-[cis-4-(4-Dimethylamino-quinolin-2-ylamino)-cyclohexyl]-2-phenoxy-nicotinamide hydrochloride]	< 50
O=C(N[C@H]1CC[C@@H](Nc2cc(Cl)c3ccccc3n2)CC1)c1cccnc1Oc1ccccc1 [Example 3115, N-[cis-4-(4-Chloro-quinolin-2-ylamino)-cyclohexyl]-2-phenoxy-nicotinamide hydrochloride]	< 50
COc1cc(N[C@H]2CC[C@@H](NC(=O)c3ccc(F)c(F)c3)CC2)nc2ccccc12 [Example 3116, 3,4-Difluoro-N-[cis-4-(4-methoxy-quinolin-2-ylamino)-cyclohexyl]-benzamide hydrochloride]	> 200
O=C(N[C@H]1CC[C@@H](Nc2cc(Cl)c3ccccc3n2)CC1)c1ccc(F)c(F)c1 [Example 3117, N-[cis-4-(4-Chloro-quinolin-2-ylamino)-cyclohexyl]-3,4-difluoro-benzamide hydrochloride]	< 50
CN(C)c1cc(N[C@H]2CC[C@@H](CNC(=O)c3cccnc3Oc3ccccc3)CC2)nc2ccccc12 [Example 3118, N-[cis-4-(4-Dimethylamino-quinolin-2-ylamino)-cyclohexylmethyl]-2-phenoxy-nicotinamide hydrochloride]	> 200
Cc1cnc(N[C@H]2CC[C@@H](NC(=O)c3ccc(F)c(F)c3)CC2)nc1N(C)C [Example 3119, N-[cis-4-(4-Dimethylamino-5-methyl-pyrimidin-2-ylamino)-cyclohexyl]-3,4-difluoro-benzamide hydrochloride]	< 50
